The text below walks through data of patent US9561228B2 (Celgene Avilomics Research, Inc., priority 2013, dated 2017).

Like-named read-outs stand apart in the source and are kept apart here.

In one experiment the target is T1, Erk1 (Homo sapiens, UniProt P27361).
T1 construct: purchased Millipore 14-439
Nature of the experiment: Protein Mass Modification Assay (intact protein MALDI, 60 min, 10-fold excess of compound). It counts as binding. The method, boiled down: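 Human Erk1 was incubated 60 min at room temperature with a 10-fold molar excess of compound, then analysed as intact protein by MALDI with sinapinic acid matrix. The centroid mass shift versus untreated protein was divided by compound molecular weight to give percent modified protein.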

The target of the next experiment is T2, MEK1 activated ERK1 (Homo sapiens, UniProt P27361).
T2 construct: purchased Millipore (Billerica, Mass.) 14-439-K
T2 sequence (P27361 whole entry): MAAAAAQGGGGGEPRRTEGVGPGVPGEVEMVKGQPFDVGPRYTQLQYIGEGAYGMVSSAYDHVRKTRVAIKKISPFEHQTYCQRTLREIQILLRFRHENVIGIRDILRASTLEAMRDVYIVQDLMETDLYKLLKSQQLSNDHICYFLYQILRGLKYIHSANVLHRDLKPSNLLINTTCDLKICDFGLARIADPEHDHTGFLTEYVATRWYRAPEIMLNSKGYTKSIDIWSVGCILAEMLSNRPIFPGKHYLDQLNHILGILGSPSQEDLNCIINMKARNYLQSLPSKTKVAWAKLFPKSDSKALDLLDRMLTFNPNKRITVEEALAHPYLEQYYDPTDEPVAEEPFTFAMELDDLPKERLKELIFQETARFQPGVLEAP
Briefly: Omnia continuous-read kinase assay for potency against MEK1 activated ERK1. It counts as biochemical. The gist of the method: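 Apparent IC50 came from initial reaction slopes (RFU vs time) plotted against log inhibitor with a variable-slope fit. Reactions were started with ERK1 (4 nM final) added to 50 μM ATP, roughly at its appKM, and 10 μM Sox-conjugated ST17 peptide in 20 mM Tris pH 7.5, 5 mM MgCl2. Fluorescence was monitored every 71 seconds.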

In experiment [1] the test system is ERK1/2 phosphorylation of p90RSK in A375 cells. Briefly: Detection of total and phosphor-RSK by MSD ELISA (A375). In kind it is cell-based. To be noted: Homo sapiens, A-375, read-out: ERK1/ERK2 PRSK A375 EC50. The gist of the method:
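A375 cells serum-starved overnight in DMEM/0.1% FBS, then treated 2 h at 37° C with compound (1000× DMSO dilutions into medium). Lysates captured on RSK antibody-coated MSD plates; phospho-RSK (Ser380) and total RSK detected with SulfoTag secondary antibodies by electrochemiluminescence.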

T1 sequence (P27361 whole entry): as above

As to `C=CC(=O)Nc1cc(CN2CCN(C(=O)CO)CC2)ccc1Nc1nc(Nc2cc(OC)ncc2C)ncc1C(F)(F)F` [Compound I-385, N-(5-((4-(2-hydroxyacetyl)piperazin-1-yl)methyl)-2-((2-((2-methoxy-5-methylpyridin-4-yl)amino)-5-(trifluoromethyl)pyrimidin-4-yl)amino)phenyl)acrylamide], on Erk1, the “ERK1 Mass Mod (%)” value is reported as “E (a mass modification of ≧70%)”. Moreover, at MEK1 activated ERK1 (ATP at KM, WT), the IC50 is < 0.1 µM. The EC50 in experiment [1] is < 0.1 µM.
For `C=CC(=O)Nc1cc(C)ccc1Nc1nc(Nc2ccc3ocnc3c2)ncc1C(F)(F)F` [Compound I-375, N-(2-((2-(benzo[d]oxazol-5-ylamino)-5-(trifluoromethyl)pyrimidin-4-yl)amino)-5-methylphenyl)acrylamide], the “ERK1 Mass Mod (%)” value at Erk1 is listed as “E (a mass modification of ≧70%)”. Besides, the IC50 on MEK1 activated ERK1 (ATP at KM, WT) was > 1 µM. Moreover, the EC50 in experiment [1] was in the range of 0.101 to 0.5 µM.
The matching figures for `C=CC(=O)Nc1cc(CN2CCN(C(C)=O)CC2)ccc1Nc1nc(Nc2cc(OC)ncc2C)ncc1C(F)(F)F` [Compound I-381, N-(5-((4-acetylpiperazin-1-yl)methyl)-2-((2-((2-methoxy-5-methylpyridin-4-yl)amino)-5-(trifluoromethyl)pyrimidin-4-yl)amino)phenyl)acrylamide]: “E (a mass modification of ≧70%)”, < 0.1 µM and < 0.1 µM.
In the case of `C=CC(=O)Nc1cc(C)ccc1Nc1nc(Nc2cc(P(C)(C)=O)ncc2C)ncc1C(F)(F)F` [Compound I-343, N-(2-((2-((2-(dimethylphosphoryl)-5-methylpyridin-4-yl)amino)-5-(trifluoromethyl)pyrimidin-4-yl)amino)-5-methylphenyl)acrylamide], the “ERK1 Mass Mod (%)” value on Erk1 is reported as “F (a mass modification of 31-69%)”. Besides, the IC50 at MEK1 activated ERK1 (ATP at KM, WT) was in the range of 0.101 to 0.5 µM. Moreover, in experiment [1], the EC50 was 0.101 to 0.5 µM.
`C=CC(=O)Nc1cc(C)ccc1Nc1nc(Nc2nc(OC)nc(OC)n2)ncc1C(F)(F)F` [Compound I-371, N-(2-((2-((4,6-dimethoxy-1,3,5-triazin-2-yl)amino)-5-(trifluoromethyl)pyrimidin-4-yl)amino)-5-methylphenyl)acrylamide]: the “ERK1 Mass Mod (%)” value on Erk1 is “F (a mass modification of 31-69%)”. The IC50 at MEK1 activated ERK1 (ATP at KM, WT) was in the range of 0.101 to 0.5 µM. The EC50 in experiment [1] lay within 0.101 to 0.5 µM.
In the case of `C=CC(=O)Nc1cc(C)ccc1Nc1nc(Nc2cc(OCCO)ncc2C)ncc1C(F)(F)F` [Compound I-376, N-(2-((2-((2-(2-hydroxyethoxy)-5-methylpyridin-4-yl)amino)-5-(trifluoromethyl)pyrimidin-4-yl)amino)-5-methylphenyl)acrylamide], on Erk1, the “ERK1 Mass Mod (%)” value is “E (a mass modification of ≧70%)”. In addition, the IC50 at MEK1 activated ERK1 (ATP at KM, WT) lay in the range of 0.101 to 0.5 µM. In experiment [1], the EC50 is < 0.1 µM.
As to `C=CC(=O)Nc1cc(CN2CCOCC2)ccc1Nc1nc(Nc2cc(OC)ncc2C)ncc1C(F)(F)F` [Compound I-399, N-(2-((2-((2-methoxy-5-methylpyridin-4-yl)amino)-5-(trifluoromethyl)pyrimidin-4-yl)amino)-5-(morpholinomethyl)phenyl)acrylamide], the “ERK1 Mass Mod (%)” value on Erk1 is listed as “E (a mass modification of ≧70%)”. Moreover, the IC50 on MEK1 activated ERK1 (ATP at KM, WT) was in the range of 0.101 to 0.5 µM. Moreover, the EC50 in experiment [1] is 0.501 to 0.999 µM.
Regarding `C=CC(=O)Nc1cc(CN2CCN(C(=O)CO)CC2)ccc1Nc1nc(Nc2nc(OC)ncc2C)ncc1C(F)(F)F` [Compound I-386, N-(5-((4-(2-hydroxyacetyl)piperazin-1-yl)methyl)-2-((2-((2-methoxy-5-methylpyrimidin-4-yl)amino)-5-(trifluoromethyl)pyrimidin-4-yl)amino)phenyl)acrylamide], on Erk1, the “ERK1 Mass Mod (%)” value is listed as “E (a mass modification of ≧70%)”. The IC50 at MEK1 activated ERK1 (ATP at KM, WT) is 0.501 to 0.999 µM. The EC50 in experiment [1] was > 1 µM.
On the same counts, the results for `C=CC(=O)Nc1cc(CN2CCN(C(=O)c3cnccn3)CC2)ccc1Nc1nc(Nc2nc(OC)ncc2C)ncc1C(F)(F)F` [Compound I-393, N-(2-((2-((2-methoxy-5-methylpyrimidin-4-yl)amino)-5-(trifluoromethyl)pyrimidin-4-yl)amino)-5-((4-(pyrazine-2-carbonyl)piperazin-1-yl)methyl)phenyl)acrylamide] are “E (a mass modification of ≧70%)”, 0.501 to 0.999 µM and > 1 µM.
The matching figures for `C=CC(=O)Nc1cc(CCC(N)=O)ccc1Nc1nc(Nc2cc(OC)ncc2C)ncc1C(F)(F)F` [Compound I-400, N-(5-(3-amino-3-oxopropyl)-2-((2-((2-methoxy-5-methylpyridin-4-yl)amino)-5-(trifluoromethyl)pyrimidin-4-yl)amino)phenyl)acrylamide]: “E (a mass modification of ≧70%)”, < 0.1 µM and < 0.1 µM.
On the same counts, the results for `C=CC(=O)Nc1cc(CN2CCN(C(C)=O)CC2)ccc1Nc1nc(Nc2nc(OC)ncc2C)ncc1C(F)(F)F` [Compound I-382, N-(5-((4-acetylpiperazin-1-yl)methyl)-2-((2-((2-methoxy-5-methylpyrimidin-4-yl)amino)-5-(trifluoromethyl)pyrimidin-4-yl)amino)phenyl)acrylamide] are “E (a mass modification of ≧70%)”, 0.101 to 0.5 µM and > 1 µM.
Consider `C=CC(=O)Nc1cc(C)ccc1Nc1nc(Nc2cnc(OC)cc2C)ncc1C(F)(F)F` [Compound I-350, N-(2-((2-((6-methoxy-4-methylpyridin-3-yl)amino)-5-(trifluoromethyl)pyrimidin-4-yl)amino)-5-methylphenyl)acrylamide], for which the “ERK1 Mass Mod (%)” value at Erk1 was “F (a mass modification of 31-69%)”. Moreover, the half-maximal inhibitory concentration (IC50) on MEK1 activated ERK1 (ATP at KM, WT) was in the range of 0.501 to 0.999 µM. Further, the EC50 in experiment [1] was > 1 µM.
With `C=CC(=O)Nc1ccccc1Nc1nc(Nc2cc(OC)nc(N3CCN(C(C)=O)CC3)c2)ncc1C(F)(F)F` [Compound I-92], the “ERK1 Mass Mod (%)” value on Erk1 is given as “E (a mass modification of ≧70%)”. For the same compound, at MEK1 activated ERK1 (MEK1 activated ERK1, ATP at KM, read-out: ERK1 Omnia WT ATP KM IC50), the IC50 is < 0.1 µM. Besides, the EC50 in experiment [1] was < 0.1 µM.
`C=CC(=O)Nc1cc(CN2CCN(C(=O)c3cccnc3)CC2)ccc1Nc1nc(Nc2nc(OC)ncc2C)ncc1C(F)(F)F` [Compound I-392, N-(2-((2-((2-methoxy-5-methylpyrimidin-4-yl)amino)-5-(trifluoromethyl)pyrimidin-4-yl)amino)-5-((4-nicotinoylpiperazin-1-yl)methyl)phenyl)acrylamide]: the “ERK1 Mass Mod (%)” value on Erk1 was “E (a mass modification of ≧70%)”. Besides, the IC50 at MEK1 activated ERK1 (ATP at KM, WT) lay within 0.101 to 0.5 µM. Also, the EC50 in experiment [1] was > 1 µM.
On the same counts, the results for `C=CC(=O)Nc1cc(OCCN)ccc1Nc1nc(Nc2cc(OC)ncc2C)ncc1C(F)(F)F` [Compound I-396, N-(5-(2-aminoethoxy)-2-((2-((2-methoxy-5-methylpyridin-4-yl)amino)-5-(trifluoromethyl)pyrimidin-4-yl)amino)phenyl)acrylamide] are “E (a mass modification of ≧70%)”, < 0.1 µM and 0.101 to 0.5 µM.
On the same counts, the results for `C=CC(=O)Nc1cc(C)c(C#N)cc1Nc1nc(NC2CCOCC2)ncc1C(F)(F)F` [Compound I-397, N-(4-cyano-5-methyl-2-((2-((tetrahydro-2H-pyran-4-yl)amino)-5-(trifluoromethyl)pyrimidin-4-yl)amino)phenyl)acrylamide] are “F (a mass modification of 31-69%)”, > 1 µM and 0.501 to 0.999 µM.
